Results published in US12527766B2, “Methods of treating acute coronary syndrome using 3,3′-diindolylmethane” (Boulder BioScience LLC, priority 2020, dated 2026).
Counter-ions that a name gives are not always drawn.

Assays:
[1] = cited from earlier work; for Log P of Second Active Agent: co-formulation table; for Log P: table of second active agents
human neutrophils [2] = assay: Sytox Orange extracellular DNA release (NET) assay; assay type: cell-based
Excerpt: (§1) Neutrophil isolation: Neutrophils were isolated from the peripheral blood of healthy donors, under a protocol approved by an institutional ethics committee. All subjects gave written informed consent in accordance with the Declaration of Helsinki. Briefly, whole blood was collected using an anticoagulant (sodium citrate), and isolated as previously described using a Percoll gradient separation of neutrophils from other leukocytes (Modulation of multiple neutrophil functions by preparative methods or trace concentrations of bacterial lipopolysaccharide. Haslett C, et al. Am J Pathol. 1985 April; 119(1): 101-10). Neutrophils were suspended in RPMI, 2% heat-inactivated human plasma, and 10 mM HEPES, pH7.5 (complete RPMI) to a neutrophil specific concentration of 2.2×10^6 neutrophils/ml.
First Neutrophil Extracellular Trap (NET) indicating assay: A Sytox Orange extracellular DNA release assay was utilized. For the experiments using DIM from self-emulsifying SMEDDS BR-9001 (i.e., Example 1), purified human neutrophils (2×10^5 per sample) in complete RPMI were allowed to settle in 24-well plates in the presence of DIM from self-emulsifying DIM formulation SMEDDS—BR-9001 (12% DIM) providing experimental DIM concentrations of 1, 3, 10, and 30 μM. Control wells received SMEDDS excipient vehicle mixture alone (diluted to provide excipient mixture concentrations equivalent to excipients present in the 3 and 30 μM DIM experimental wells). Neutrophils (2×10^5 per well) were plated in a black-walled 96-well plate and allowed to settle in the presence of DIM from BR-9001 or excipient vehicle control for 30 min. After 30 minutes neutrophils in wells were stimulated with recombinant fusion protein (F Protein (1 μg/ml, Sino Biologicals) or phenolextracted lipopolysaccharide (LPS; 10 μg/ml; List Biologicals). and 5 μM Sytox Orange (Thermo Fisher) was added and gently mixed. The plate was placed in a prewarmed (37° C.) fluorescence plate reader (BioTek FLX-800) and fluorescence read at excitation/emission of 540/600 every 10 minutes over 4 hours. Following this, 1% saponin was added to lyse neutrophils to provide 100% DNA release for experiments presented in FIGS. 1A and 1B. This allowed results to be presented as proportion of total DNA in these experiments. Otherwise results are reported as relative fluorescent units (FIGS. 3A and 3B). The kinetics or 4-hour results were reported as described (Sec FIGS. 1A and 1B and FIG. 3A).
A second set of experiments were performed using crystalline DIM solubilized in DMSO prior to addition to culture wells. […] The plate was placed in a prewarmed (37° C.) fluorescence plate reader and fluorescence read as above every 10 minutes over 4 hours. […]

[3] = tested on: carotid artery thromboses; assay: FeCl3 carotid artery thrombosis in mice, H&E fibrin content; assay type: in vivo, mice (C57BL6/J); details: DIM treated animals (oral and IV groups)
Protocol: Animals: All mice were of C57BL6/J background. Specific pathogen-free mice were obtained from Envigo, USA. All mice used for experiments were between 11 and 14 weeks old. Each experimental group was weight and sex-matched so that experiments were carried out on male and female mice with similar weight and in equal sex distribution between groups. All procedures were performed on anaesthetized animals using a uniform technique of inhaled Isoflurane combined with supplemental parenteral agents. Animals were sacrificed under deep anesthesia. All animal experiments were carried out according to the guidelines from the Guide for Care and Use of Laboratory Animals and The Public Health Service (PHS) Policy on Humane Care and Use of Laboratory Animals. All experimental procedures performed on animals met the requirements of the Guide for the protection of animals used for scientific purposes. Induction of arterial thrombosis after Ferric Chloride exposure: For thrombus induction in the distal carotid artery in vivo, local application of FeCl3 was used following an established method (Wang et al, 2005, supra). In brief, mice were anesthetized using 2-3% inhaled isoflurane, shifting to lower dose maintenance isoflurane and supplemented with a fixed combination of intra-peritoneal buprenorphine, midazolam and dexmedetomidine. […]

human neutrophils [4] = assay: Fluorescent imaging of extracellular DNA (Sytox Orange microscopy); assay type: cell-based
Excerpt: as §1
Fluorescent imaging of extracellular DNA for photo-micrograph data: Neutrophils (5×10^5 per well) were spotted on a glass microscope chamber slide (Ibidi) and cells were stimulated for 4 hours as indicated above with F Protein or LPS, at 37° C. in a humidified chamber, and stained with 0.2 μM Sytox Orange for the final 10 minutes. The slides were fixed in 2% formaldehyde (Sigma) for 10 min at room temperature and imaged.

[5] = following oral administration; cited from earlier work
[6] = in vivo and in vitro; cited from earlier work

CCCCCCCCc1ccc(CCC(N)(CO)CO)cc1 [Fingolimod]
Log P of Second Active Agent [1]: 5.25 | Log P [1]: Log P - 5.25

Anakinra: recombinant and slightly modified version of the human interleukin 1 receptor antagonist protein
Log P [1]: Log P - 2.69

c1ccc2c(Cc3c[nH]c4ccccc34)c[nH]c2c1 [DIM, 3,3′-diindolylmethane]
delay in DNA release versus absence of DIM (human neutrophils [2]; F protein and LPS stimulated neutrophils): about 1 hours | IC50 (human neutrophils [2]; Homo sapiens, Neutrophil, free DIM (crystalline, in DMSO), read-out: estimated IC50, inhibition of DNA release): 3 to 30 µM | effect on DNA release (Sytox Orange) (human neutrophils [2]; free DIM in DMSO 1, 3, 10, 30 μM, F Protein 1 μg/ml): dose-dependent inhibitory effect | spontaneous DNA release (human neutrophils [2]; non-stimulated neutrophils): did not inhibit | thrombus composition (H&E) versus Vehicle Control [3]: less compact thrombi, primarily composed of red cells (RBCs), with a minimum of fibrin and lower presence of leukocytes | extracellular DNA positive cells (microscopy) (human neutrophils [4]; 3 μM to 30 μM DIM): dose response | visualization of extracellular DNA (microscopy) (human neutrophils [4]; API (free) DIM, F Protein and LPS, 4 h): inhibited visualization of extracellular DNA | tissue distribution [5]: concentrates in brain tissue

COC(=O)/C=C/C(=O)OC [Dimethyl Fumarate, Dimethyl fumarate]
Log P [1]: Log P - 0.62

OCc1c[nH]c2ccccc12 [indole-3-carbinol, 1H-indol-3-ylmethanol]
conversion products [6]: converts to DIM and LTR

O=c1c2ccccc2[se]n1-c1ccccc1 [Ebselen]
Log P [1]: Log P - 2.65

CCCSc1nc(N[C@@H]2C[C@H]2c2ccc(F)c(F)c2)c2nnn([C@@H]3C[C@H](OCCO)[C@@H](O)[C@H]3O)c2n1 [Ticagrelor]
Log P of Second Active Agent [1]: 1.90 | Log P [1]: Log P - 1.90
